BindingDB's records for doi:10.1021/jm00046a020 (Purdue University, 1994)

The compounds below were run against Tyrosine-protein kinase transforming protein Src (Rous sarcoma virus) (assay: Inhibition of in vitro protein-tyrosine kinase activity of p60v-src enzyme in presence of 5 uM ATP.).

Question: `Nc1cccc(-c2cc(=O)c3c(N)c(O)c(N)cc3o2)c1` [5,7-Diamino-2-(3-amino-phenyl)-6-hydroxy-chromen-4-one] was tested. Which IC50 did it give?
Answer: The IC50 was 38.4 µM.

Question: Which IC50 does the source give for `Nc1ccc(-c2cc(=O)c3c(N)c(O)c(N)cc3o2)cc1` [5,7-Diamino-2-(4-amino-phenyl)-6-hydroxy-chromen-4-one] here?
Answer: Its IC50 is greater than 50 µM.

Question: `Nc1ccc(-c2cc(=O)c3cc(N)c(O)c(N)c3o2)cc1` [6,8-Diamino-2-(4-amino-phenyl)-7-hydroxy-chromen-4-one] was tested. Which IC50 did it give?
Answer: The IC50 was greater than 50 µM.

Question: With `Nc1ccc(-c2cc(=O)c3cc(N)cc(N)c3o2)cc1` [6,8-Diamino-2-(4-amino-phenyl)-chromen-4-one] as the compound, how does the IC50 read?
Answer: Its IC50 is greater than 50 µM.

Question: `Nc1cccc(-c2cc(=O)c3cc(N)c(O)cc3o2)c1` [6-Amino-2-(3-amino-phenyl)-7-hydroxy-chromen-4-one] was tested. Which IC50 did it give?
Answer: Its IC50 is greater than 50 µM.

Question: `Nc1cccc(-c2cc(=O)c3cc(N)ccc3o2)c1` [6-Amino-2-(3-amino-phenyl)-chromen-4-one] was tested. Which IC50 did it give?
Answer: Its IC50 is greater than 50 µM.

Question: For `Nc1ccc(-c2cc(O)c3c(=O)c(N)ccc-3o2)cc1` [6-Amino-2-(4-amino-phenyl)-5-hydroxy-chromen-4-one], which IC50 is on record?
Answer: The IC50 was greater than 50 µM.

Question: With `Nc1ccc(-c2cc(=O)c3cc(N)c(O)cc3o2)cc1` [6-Amino-2-(4-amino-phenyl)-7-hydroxy-chromen-4-one] as the compound, how does the IC50 read?
Answer: Its IC50 is greater than 50 µM.

Question: With `Nc1ccc(-c2cc(=O)c3cc(N)ccc3o2)cc1` [6-Amino-2-(4-amino-phenyl)-chromen-4-one] as the compound, how does the IC50 read?
Answer: Its IC50 is 28.8 µM.

Question: `Nc1ccc(-c2cc(=O)c3c(O)ccc(N)c3o2)cc1` [8-Amino-2-(4-amino-phenyl)-5-hydroxy-chromen-4-one] was tested. Which IC50 did it give?
Answer: The IC50 was greater than 50 µM.

Question: With `Nc1ccc(-c2cc(=O)c3cc(O)cc(N)c3o2)cc1` [8-Amino-2-(4-amino-phenyl)-6-hydroxy-chromen-4-one] as the compound, how does the IC50 read?
Answer: Its IC50 is greater than 50 µM.

Question: Which IC50 does the source give for `COc1cc(N)c2oc(-c3ccc(N)cc3)cc(=O)c2c1` [8-Amino-2-(4-amino-phenyl)-6-methoxy-chromen-4-one] here?
Answer: The IC50 was greater than 50 µM.

Question: For `Nc1ccc(-c2cc(=O)c3ccc(O)c(N)c3o2)cc1` [8-Amino-2-(4-amino-phenyl)-7-hydroxy-chromen-4-one], which IC50 is on record?
Answer: The IC50 was greater than 50 µM.

Question: How did the IC50 turn out when `Nc1ccc(-c2cc(=O)c3cccc(N)c3o2)cc1` [8-Amino-2-(4-amino-phenyl)-chromen-4-one] was run?
Answer: Its IC50 is greater than 50 µM.
